Source: PubChem BioAssay (NCI)
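1) Cells in 96-well plates. 2) Compound, 48 h, 5 concentrations. 3) Linear interpolation between surrounding doses. 4) Unreached endpoint = highest concentration. Here, GI50 denotes the concentration required for 50% inhibition of growth. At the TGI there is no net growth.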

Tests used:
Assay in all cases: NCI anticancer screen, dose series, 48 h
SNB-19 CNS = system: SNB-19 CNS
HCT-15 colon = system: HCT-15 colon
HOP-62 NSCLC = system: HOP-62 NSCLC
UACC-62 melanoma = system: UACC-62 melanoma
IGROV1 ovarian = system: IGROV1 ovarian
ACHN renal = system: ACHN renal
U251 CNS = system: U251 CNS
CAKI-1 renal = system: CAKI-1 renal
MCF7 breast = system: MCF7 breast
MDA-MB-231 breast = system: MDA-MB-231 breast

CC(=O)[O][Hg][c]1s[c]([Hg][O]C(C)=O)[c]([Hg][O]C(C)=O)[c]1[Hg][O]C(C)=O
GI50 (SNB-19 CNS): 4.27 µM
TGI (SNB-19 CNS): 16.3 µM
GI50 (HCT-15 colon): 4.51 µM
TGI (HCT-15 colon): 30.4 µM
GI50 (HOP-62 NSCLC): 4.91 µM
TGI (HOP-62 NSCLC): 16.5 µM
GI50 (UACC-62 melanoma): 6.47 µM
TGI (UACC-62 melanoma): 27.4 µM
GI50 (IGROV1 ovarian): 3.61 µM
TGI (IGROV1 ovarian): 23.4 µM
GI50 (ACHN renal): 19.3 µM
TGI (ACHN renal): > 100 µM

Cc1ccc(C)c(NC(=O)C(=O)Nn2c(=S)[nH]c3ccccc3c2=O)c1
TGI (U251 CNS): > 100 µM
TGI (CAKI-1 renal): > 100 µM
TGI (SNB-19 CNS): > 100 µM
TGI (HCT-15 colon): > 100 µM
TGI (HOP-62 NSCLC): > 100 µM
TGI (UACC-62 melanoma): > 100 µM
TGI (IGROV1 ovarian): > 100 µM
TGI (ACHN renal): > 100 µM

O/N=C1\C(=C\c2ccc3c(c2)OCCO3)CCCC1C(NO)c1ccc2c(c1)OCCO2 (stereo not drawn)
TGI (U251 CNS): 42.2 µM
TGI (CAKI-1 renal): > 100 µM
TGI (SNB-19 CNS): > 100 µM
TGI (HCT-15 colon): 68.6 µM
TGI (HOP-62 NSCLC): 52.3 µM
TGI (UACC-62 melanoma): 31.7 µM
TGI (IGROV1 ovarian): > 100 µM
TGI (ACHN renal): > 100 µM

CC1OC(=O)N2CCC=CC12 (stereo not drawn)
TGI (U251 CNS): > 100 µM
TGI (SNB-19 CNS): > 100 µM
TGI (HCT-15 colon): > 100 µM
TGI (UACC-62 melanoma): > 100 µM
TGI (IGROV1 ovarian): > 100 µM
TGI (ACHN renal): > 100 µM

C=Cc1cc(OC)c2c(c1)c(=O)oc1c2cc(OC)c2c(O)ccc(C3OC(C(C)O)C(O)C3O)c21 (stereo not drawn)
GI50 (SNB-19 CNS): 0.028 µM
TGI (SNB-19 CNS): 0.246 µM
GI50 (HOP-62 NSCLC): 0.00996 µM
TGI (HOP-62 NSCLC): 0.0595 µM
GI50 (UACC-62 melanoma): 0.0112 µM
TGI (UACC-62 melanoma): 0.0296 µM
GI50 (IGROV1 ovarian): 0.0034 µM
TGI (IGROV1 ovarian): 0.104 µM
GI50 (MCF7 breast): 0.000944 µM
TGI (MCF7 breast): 0.321 µM
GI50 (MDA-MB-231 breast): 0.0438 µM
TGI (MDA-MB-231 breast): > 1 µM

COc1ccc(/C=C/C(=O)c2ccc(Nc3nc(Nc4ccc(F)cc4)nc(Nc4ccc(F)cc4)n3)cc2)cc1
GI50 (U251 CNS): 16.7 µM
TGI (U251 CNS): 56.2 µM
GI50 (CAKI-1 renal): 38.3 µM
TGI (CAKI-1 renal): > 100 µM
GI50 (SNB-19 CNS): 30.9 µM
TGI (SNB-19 CNS): > 100 µM
GI50 (HCT-15 colon): 14.4 µM
TGI (HCT-15 colon): > 100 µM
GI50 (HOP-62 NSCLC): 13.1 µM
TGI (HOP-62 NSCLC): 30 µM
GI50 (UACC-62 melanoma): 29.9 µM
TGI (UACC-62 melanoma): > 100 µM
GI50 (MCF7 breast): 5.59 µM
TGI (MCF7 breast): 34.3 µM
GI50 (ACHN renal): 30.4 µM
TGI (ACHN renal): > 100 µM
GI50 (MDA-MB-231 breast): 35.3 µM
TGI (MDA-MB-231 breast): > 100 µM

COc1cc([C@@H]2c3cc4c(cc3[C@@H](NCc3cccc(F)c3)C3COC(=O)[C@@H]32)OCO4)cc(OC)c1O (stereo partly drawn)
TGI (U251 CNS): 7.11 µM
TGI (CAKI-1 renal): 51.4 µM
TGI (SNB-19 CNS): > 65 µM
TGI (HCT-15 colon): 20.5 µM
TGI (HOP-62 NSCLC): 4.76 µM
TGI (UACC-62 melanoma): 10.3 µM
TGI (IGROV1 ovarian): 17.5 µM
TGI (ACHN renal): 4.61 µM

Cc1nc(-n2nc(-c3ccccc3)cc2-c2ccccc2)sc1C(=O)/C=C/c1cccc([N+](=O)[O-])c1
TGI (U251 CNS): 32.5 µM
TGI (CAKI-1 renal): 49.6 µM
TGI (SNB-19 CNS): 23.5 µM
TGI (HCT-15 colon): > 100 µM
TGI (HOP-62 NSCLC): 38.1 µM
TGI (UACC-62 melanoma): 27.5 µM
TGI (IGROV1 ovarian): 92.2 µM
TGI (ACHN renal): > 100 µM

CCOc1ccccc1NC(=O)C1=C(C)NC(C)=C(C(=O)Nc2ccccc2OCC)C1c1cccc([N+](=O)[O-])c1
TGI (U251 CNS): > 100 µM
TGI (CAKI-1 renal): > 100 µM
TGI (SNB-19 CNS): > 100 µM
TGI (HOP-62 NSCLC): > 100 µM
TGI (IGROV1 ovarian): > 100 µM
TGI (ACHN renal): > 100 µM

O=[N+]([O-])c1ccc2nc(-c3ccc(Cl)cc3)[nH]c2c1
TGI (CAKI-1 renal): 93.9 µM
TGI (SNB-19 CNS): 80.1 µM
TGI (HCT-15 colon): 29.1 µM
TGI (HOP-62 NSCLC): 40.1 µM
TGI (UACC-62 melanoma): 42 µM
TGI (IGROV1 ovarian): 89.5 µM
TGI (MCF7 breast): 62.8 µM
TGI (ACHN renal): 67.9 µM
TGI (MDA-MB-231 breast): 81.5 µM

O=C(N/C(=C\c1ccc(F)cc1)c1nc2ccccc2[nH]1)c1ccccc1
TGI (U251 CNS): > 100 µM
TGI (CAKI-1 renal): > 100 µM
TGI (SNB-19 CNS): > 100 µM
TGI (HCT-15 colon): > 100 µM
TGI (UACC-62 melanoma): > 100 µM
TGI (IGROV1 ovarian): > 100 µM
TGI (ACHN renal): > 100 µM

Cc1ccc([N+]2=NC(c3ccccc3)=NN(c3ccccc3)C2)cc1
TGI (U251 CNS): > 100 µM
TGI (SNB-19 CNS): > 100 µM
TGI (HCT-15 colon): > 100 µM
TGI (HOP-62 NSCLC): > 100 µM
TGI (IGROV1 ovarian): > 100 µM
TGI (ACHN renal): > 100 µM

CN1C/C(=C\c2ccc(C(=O)O)cc2)C(=O)/C(=C/c2ccc(C(=O)O)cc2)C1
TGI (U251 CNS): > 100 µM
TGI (CAKI-1 renal): > 100 µM
TGI (HCT-15 colon): > 100 µM
TGI (HOP-62 NSCLC): > 100 µM
TGI (UACC-62 melanoma): > 100 µM
TGI (IGROV1 ovarian): > 100 µM
TGI (ACHN renal): > 100 µM

COC(=O)C(C)Oc1ccc(O)cc1 (stereo not drawn)
TGI (U251 CNS): > 100 µM
TGI (CAKI-1 renal): > 100 µM
TGI (SNB-19 CNS): > 100 µM
TGI (HCT-15 colon): > 100 µM
TGI (HOP-62 NSCLC): > 100 µM
TGI (UACC-62 melanoma): > 100 µM
TGI (IGROV1 ovarian): > 100 µM
TGI (ACHN renal): > 100 µM

COc1ccc2c(c1)C=CC1C2CC[C@]2(C)C(NC(=O)/C=C/c3ccc(O)c(O)c3)CCC12 (stereo partly drawn)
GI50 (CAKI-1 renal): 7.1 µM
TGI (CAKI-1 renal): 24.7 µM
GI50 (SNB-19 CNS): 5.41 µM
TGI (SNB-19 CNS): 19.6 µM
GI50 (HCT-15 colon): 3.05 µM
TGI (HCT-15 colon): 13.3 µM
GI50 (HOP-62 NSCLC): 1.21 µM
TGI (HOP-62 NSCLC): 7.59 µM
GI50 (UACC-62 melanoma): 14.9 µM
TGI (UACC-62 melanoma): 30.8 µM
GI50 (IGROV1 ovarian): 5.93 µM
TGI (IGROV1 ovarian): 24.7 µM
GI50 (MCF7 breast): 6.28 µM
TGI (MCF7 breast): 20.8 µM
GI50 (ACHN renal): 7.5 µM
TGI (ACHN renal): 19.8 µM
GI50 (MDA-MB-231 breast): 12.1 µM
TGI (MDA-MB-231 breast): 25.9 µM

COC(=O)[C@@H](C)C[C@H](Cc1ccccc1)NC(=O)c1csc([C@@H](C[C@H](C(C)C)N(C)C(=O)[C@@H](NC(=O)[C@H]2CCCCN2C)C(C(F)(F)F)C(F)(F)F)OC(C)=O)n1
GI50 (U251 CNS): 0.0655 µM
TGI (U251 CNS): > 16.7 µM
GI50 (SNB-19 CNS): 0.0658 µM
TGI (SNB-19 CNS): > 16.7 µM
GI50 (HCT-15 colon): 0.0645 µM
TGI (HCT-15 colon): > 16.7 µM
GI50 (HOP-62 NSCLC): 0.0651 µM
TGI (HOP-62 NSCLC): > 16.7 µM
GI50 (UACC-62 melanoma): 0.0154 µM
TGI (UACC-62 melanoma): > 16.7 µM
GI50 (IGROV1 ovarian): 0.0666 µM
TGI (IGROV1 ovarian): > 16.7 µM
GI50 (MCF7 breast): 0.0118 µM
TGI (MCF7 breast): > 16.7 µM
GI50 (ACHN renal): 0.111 µM
TGI (ACHN renal): > 16.7 µM
GI50 (MDA-MB-231 breast): 0.0734 µM
TGI (MDA-MB-231 breast): 3.06 µM

COC(=O)C(/C(=N\O)C(=O)Nc1ccc(Br)cc1)c1nc2ccccc2[nH]c1=O (stereo not drawn)
TGI (U251 CNS): > 100 µM
TGI (CAKI-1 renal): > 100 µM
TGI (SNB-19 CNS): > 100 µM
TGI (HCT-15 colon): > 100 µM
TGI (HOP-62 NSCLC): 92.6 µM
TGI (UACC-62 melanoma): 73.1 µM
TGI (IGROV1 ovarian): 71.4 µM
TGI (ACHN renal): > 100 µM

CC(CC(=O)Nc1ccc(NC(=O)CC(C)N=NC(N)=O)cc1)N=NC(N)=O (stereo not drawn)
TGI (U251 CNS): > 100 µM
TGI (CAKI-1 renal): > 100 µM
TGI (SNB-19 CNS): > 100 µM
TGI (HCT-15 colon): 33.6 µM
TGI (HOP-62 NSCLC): > 100 µM
TGI (UACC-62 melanoma): > 100 µM
TGI (IGROV1 ovarian): > 100 µM
TGI (ACHN renal): > 100 µM

C#C[C@@H](CCCC)OC(=O)N[C@H](C)c1ccccc1
TGI (U251 CNS): > 100 µM
TGI (CAKI-1 renal): > 100 µM
TGI (SNB-19 CNS): > 100 µM
TGI (HOP-62 NSCLC): > 100 µM
TGI (UACC-62 melanoma): > 100 µM
TGI (IGROV1 ovarian): 52.6 µM
TGI (ACHN renal): > 100 µM

Cc1c(Cl)cccc1NC(=O)C(=O)c1c(O)c2ccc(O)cc2oc1=O
TGI (U251 CNS): > 100 µM
TGI (CAKI-1 renal): > 100 µM
TGI (SNB-19 CNS): > 100 µM
TGI (HCT-15 colon): > 100 µM
TGI (HOP-62 NSCLC): > 100 µM
TGI (UACC-62 melanoma): > 100 µM
TGI (IGROV1 ovarian): > 100 µM
TGI (ACHN renal): > 100 µM

COC1CC(n2cc(F)c(N)nc2=O)OC1CO (stereo not drawn)
TGI (U251 CNS): > 100 µM
TGI (CAKI-1 renal): > 100 µM
TGI (SNB-19 CNS): > 100 µM
TGI (HCT-15 colon): > 100 µM
TGI (HOP-62 NSCLC): > 100 µM
TGI (ACHN renal): > 100 µM

N#C/C(=C1\OC(N)=C(c2ccc(Cl)cc2)C1=O)c1ccc(Cl)cc1
TGI (U251 CNS): 29.1 µM
TGI (CAKI-1 renal): 34.1 µM
TGI (SNB-19 CNS): 39.6 µM
TGI (HOP-62 NSCLC): 33.4 µM
TGI (UACC-62 melanoma): 27.5 µM
TGI (IGROV1 ovarian): 38.3 µM
TGI (ACHN renal): 33.1 µM
